# From ChEMBL document CHEMBL5506008, “Synthesis and biological evaluation of 1-phenyl-tetrahydro-β-carboline-based first dual PRMT5/EGFR inhibitors as potential anticancer agents” (Eur J Med Chem, 2024)
# The source made the active and inactive calls. No cut-off for these calls is given here.
# Key:
# [1] = tested on: MCF7; experiment: Induction of apoptosis in human MCF7 cells assessed as late apoptotic cells at 7.5 uM measured after 48 hrs by Annexin V-FITC staining based flow cytometry analysis (reference value: 0.14%); type: functional
# [2] = Metabolic stability in human liver microsomes assessed as compound remaining at […] measured after 30 mins in presence of NADPH by LC-MS/MS analysis; type: ADME, Microsome; details: read-out: Stability
# [3] = tested on: MCF7; experiment: Induction of apoptosis in human MCF7 cells assessed as late apoptotic cells at 15 uM measured after 48 hrs by Annexin V-FITC staining based flow cytometry analysis (reference value: 0.14%); type: functional
# [4] = Oral bioavailability in male Sprague-Dawley rat at 10 mg/kg administered as single dose by LC-MS/MS analysis; type: ADME, organism-based; details: in vivo
# [5] = Cmax in male Sprague-Dawley rat at 2 mg/kg, iv administered via tail vein by LC-MS/MS analysis; type: ADME, organism-based; details: in vivo
# [6] = tested on: MCF7; experiment: Induction of apoptosis in human MCF7 cells assessed as late apoptotic cells at 3.75 uM measured after 48 hrs by Annexin V-FITC staining based flow cytometry analysis (reference value: 0.14%); type: functional
# [7] = tested on: MCF7; experiment: Induction of apoptosis in human MCF7 cells assessed as live cells at 3.75 uM measured after 48 hrs by Annexin V-FITC staining based flow cytometry analysis (reference value: 99.26%); type: functional
# [8] = Bioavailability in male Sprague-Dawley rat at 2 mg/kg, iv administered via tail vein by LC-MS/MS analysis; type: ADME, organism-based; details: in vivo
# [9] = tested on: MCF7; experiment: Induction of apoptosis in human MCF7 cells assessed as dead cells at 15 uM measured after 48 hrs by Annexin V-FITC staining based flow cytometry analysis (reference value: 0.02%); type: functional
# [10] = tested on: MCF7; experiment: Induction of cell cycle arrest in human MCF7 cells assessed as accumulation of cells at S phase at 7.5 uM incubated for 48 hrs by PI/RNase staining based flow cytometry analysis (reference value: 44.87%); type: functional
# [11] = tested on: HeLa; experiment: Antiproliferative activity against human HeLa cells assessed as inhibition of cell growth by CCK-8 assay
# [12] = tested on: MCF7; experiment: Antiproliferative activity against human MCF7 cells assessed as inhibition of cell growth by CCK-8 assay
# [13] = tested on: MCF7; experiment: Induction of cell cycle arrest in human MCF7 cells assessed as accumulation of cells at G2 phase at 7.5 uM incubated for 48 hrs by PI/Rnase staining based flow cytometry analysis (reference value: […]%); type: functional
# [14] = tested on: MCF7; experiment: Induction of cell cycle arrest in human MCF7 cells assessed as accumulation of cells at G1 phase at 3.75 uM incubated for 48 hrs by PI/RNase staining based flow cytometry analysis (reference value: 48.01%); type: functional
# [15] = AUC (0 to 24 hrs) in male Sprague-Dawley rat at 10 mg/kg, po administered as single dose by LC-MS/MS analysis; type: ADME, organism-based; details: in vivo
# [16] = tested on: MCF7; experiment: Induction of apoptosis in human MCF7 cells assessed as early apoptotic cells at 15 uM measured after 48 hrs by Annexin V-FITC staining based flow cytometry analysis (reference value: 0.58%); type: functional
# [17] = Volume of distribution in male Sprague-Dawley rat at 2 mg/kg, iv administered via tail vein by LC-MS/MS analysis; type: ADME, organism-based; details: in vivo
# [18] = biological target: Receptor tyrosine-protein kinase erbB-4 (Homo sapiens, UniProt Q15303); experiment: Inhibition of wild type GST-tagged HER4 catalytic domain (unknown origin) expressed in insect cells using poly(Glu-Tyr) as substrate incubated for 6 mins by ELISA; set-up: species or system Insect cell
# Chain of Receptor tyrosine-protein kinase erbB-4 (Q15303 whole entry, the tested form may be a part): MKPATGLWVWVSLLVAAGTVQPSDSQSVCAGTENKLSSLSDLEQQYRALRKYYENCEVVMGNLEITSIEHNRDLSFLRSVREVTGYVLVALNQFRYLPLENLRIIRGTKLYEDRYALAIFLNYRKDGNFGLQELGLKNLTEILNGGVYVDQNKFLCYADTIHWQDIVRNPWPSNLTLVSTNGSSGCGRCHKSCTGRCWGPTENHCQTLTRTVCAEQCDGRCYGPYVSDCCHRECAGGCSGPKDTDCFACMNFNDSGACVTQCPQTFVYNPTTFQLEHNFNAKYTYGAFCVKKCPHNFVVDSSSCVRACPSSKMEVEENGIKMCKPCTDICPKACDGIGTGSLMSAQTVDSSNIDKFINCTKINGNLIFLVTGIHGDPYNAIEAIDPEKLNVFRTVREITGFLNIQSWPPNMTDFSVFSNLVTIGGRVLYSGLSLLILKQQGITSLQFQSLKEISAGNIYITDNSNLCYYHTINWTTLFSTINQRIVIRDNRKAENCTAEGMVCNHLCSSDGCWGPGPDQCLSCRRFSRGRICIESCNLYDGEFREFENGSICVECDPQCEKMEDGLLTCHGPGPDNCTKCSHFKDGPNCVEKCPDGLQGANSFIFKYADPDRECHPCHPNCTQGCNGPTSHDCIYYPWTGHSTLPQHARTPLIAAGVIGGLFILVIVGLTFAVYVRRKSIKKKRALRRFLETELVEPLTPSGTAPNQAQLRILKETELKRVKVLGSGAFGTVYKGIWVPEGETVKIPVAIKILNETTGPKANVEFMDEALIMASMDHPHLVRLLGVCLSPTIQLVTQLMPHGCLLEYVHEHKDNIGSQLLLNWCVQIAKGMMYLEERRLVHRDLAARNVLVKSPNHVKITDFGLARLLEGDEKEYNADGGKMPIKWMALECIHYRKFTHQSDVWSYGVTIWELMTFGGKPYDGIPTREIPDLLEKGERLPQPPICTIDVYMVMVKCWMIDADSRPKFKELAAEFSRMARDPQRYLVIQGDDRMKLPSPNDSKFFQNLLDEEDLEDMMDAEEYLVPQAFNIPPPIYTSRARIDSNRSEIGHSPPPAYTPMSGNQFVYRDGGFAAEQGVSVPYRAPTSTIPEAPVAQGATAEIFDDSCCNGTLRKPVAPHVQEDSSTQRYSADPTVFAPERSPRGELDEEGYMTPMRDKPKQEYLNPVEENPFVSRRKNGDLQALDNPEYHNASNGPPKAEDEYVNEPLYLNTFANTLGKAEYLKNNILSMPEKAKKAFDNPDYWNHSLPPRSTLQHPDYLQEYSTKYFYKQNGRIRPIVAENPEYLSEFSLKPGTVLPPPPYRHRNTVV
# [19] = biological target: Protein arginine N-methyltransferase 1 (Homo sapiens, UniProt Q99873); experiment: Inhibition of PRMT1 (unknown origin) using [3H]SAM as substrate preincubated for 15 mins followed by substrate addition and measured after 60 mins by microbeta scintillation counting analysis
# Chain of Protein arginine N-methyltransferase 1 (Q99873 whole entry): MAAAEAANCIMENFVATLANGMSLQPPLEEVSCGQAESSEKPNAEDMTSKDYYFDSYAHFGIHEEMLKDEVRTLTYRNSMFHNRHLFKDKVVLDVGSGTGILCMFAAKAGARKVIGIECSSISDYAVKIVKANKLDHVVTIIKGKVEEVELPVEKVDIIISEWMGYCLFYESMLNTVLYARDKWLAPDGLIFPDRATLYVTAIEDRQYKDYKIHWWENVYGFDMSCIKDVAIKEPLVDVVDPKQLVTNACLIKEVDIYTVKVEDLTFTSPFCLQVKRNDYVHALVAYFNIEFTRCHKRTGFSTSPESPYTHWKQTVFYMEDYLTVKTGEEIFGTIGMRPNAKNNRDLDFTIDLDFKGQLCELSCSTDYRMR
# [20] = tested on: MCF7; experiment: Induction of apoptosis in human MCF7 cells assessed as live cells at 15 uM measured after 48 hrs by Annexin V-FITC staining based flow cytometry analysis (reference value: 99.26%); type: functional
# [21] = AUC (0 to infinity) in male Sprague-Dawley rat at 10 mg/kg, po administered as single dose by LC-MS/MS analysis; type: ADME, organism-based; details: in vivo
# [22] = tested on: MCF7; experiment: Induction of apoptosis in human MCF7 cells assessed as dead cells at 7.5 uM measured after 48 hrs by Annexin V-FITC staining based flow cytometry analysis (reference value: 0.02%); type: functional
# [23] = tested on: A549; experiment: Antiproliferative activity against human A549 cells assessed as inhibition of cell growth by CCK-8 assay
# [24] = tested on: MCF7; experiment: Induction of cell cycle arrest in human MCF7 cells assessed as accumulation of cells at S phase at 3.75 uM incubated for 48 hrs by PI/RNase staining based flow cytometry analysis (reference value: 44.87%); type: functional
# [25] = Clearance in male Sprague-Dawley rat at 10 mg/kg, po administered as single dose by LC-MS/MS analysis; type: ADME, organism-based; details: in vivo
# [26] = tested on: MCF7; experiment: Induction of cell cycle arrest in human MCF7 cells assessed as accumulation of cells at G1 phase at 7.5 uM incubated for 48 hrs by PI/RNase staining based flow cytometry analysis (reference value: 48.01%); type: functional
# [27] = tested on: MCF7; experiment: Induction of apoptosis in human MCF7 cells assessed as dead cells at 3.75 uM measured after 48 hrs by Annexin V-FITC staining based flow cytometry analysis (reference value: 0.02%); type: functional
# [28] = tested on: HepG2; experiment: Antiproliferative activity against human HepG2 cells assessed as inhibition of cell growth by CCK-8 assay
# [29] = Volume of distribution in male Sprague-Dawley rat at 10 mg/kg, po administered as single dose by LC-MS/MS analysis; type: ADME, organism-based; details: in vivo
# [30] = tested on: MDA-MB-231; experiment: Antiproliferative activity against human MDA-MB-231 cells assessed as inhibition of cell growth by CCK-8 assay
# [31] = Metabolic stability in rat liver microsomes assessed as compound remaining at […] measured after 30 mins in presence of NADPH by LC-MS/MS analysis; type: ADME, Microsome; details: read-out: Stability
# [32] = Half life in male Sprague-Dawley rat at 10 mg/kg, po administered as single dose by LC-MS/MS analysis; type: ADME, organism-based; details: in vivo
# [33] = tested on: MCF7; experiment: Induction of apoptosis in human MCF7 cells assessed as early apoptotic cells at 3.75 uM measured after 48 hrs by Annexin V-FITC staining based flow cytometry analysis (reference value: 0.58%); type: functional
# [34] = Tmax in male Sprague-Dawley rat at 10 mg/kg, po administered as single dose by LC-MS/MS analysis; type: ADME, organism-based; details: in vivo
# [35] = tested on: MCF7; experiment: Induction of apoptosis in human MCF7 cells assessed as early apoptotic cells at 7.5 uM measured after 48 hrs by Annexin V-FITC staining based flow cytometry analysis (reference value: 0.58%); type: functional
# [36] = tested on: MCF7; experiment: Induction of cell cycle arrest in human MCF7 cells assessed as accumulation of cells at G2 phase at 3.75 uM incubated for 48 hrs by PI/Rnase staining based flow cytometry analysis (reference value: […]%); type: functional
# [37] = tested on: MCF7; experiment: Induction of apoptosis in human MCF7 cells assessed as live cells at 7.5 uM measured after 48 hrs by Annexin V-FITC staining based flow cytometry analysis (reference value: 99.26%); type: functional
# [38] = Cmax in male Sprague-Dawley rat at 10 mg/kg, po administered as single dose by LC-MS/MS analysis; type: ADME, organism-based; details: in vivo
# [39] = tested on: MCF7; experiment: Antitumor activity against orthotopic human MCF7 cells xenografted in CB17SCID mouse assessed as inhibition of tumor growth at 10 to 20 mg/kg, po qd administered once daily for 21 days starting from 3 days post tumor inoculation and measured every day by calipers method; type: functional, organism-based; details: dose 10-20 mg/kg, time 21.0 day
# [40] = biological target: T1, Protein arginine N-methyltransferase 5 (Homo sapiens, UniProt O14744); experiment: Inhibition of PRMT5 (unknown origin) by radiometric-based scintillation proximity assay
# T1 sequence (O14744 whole entry): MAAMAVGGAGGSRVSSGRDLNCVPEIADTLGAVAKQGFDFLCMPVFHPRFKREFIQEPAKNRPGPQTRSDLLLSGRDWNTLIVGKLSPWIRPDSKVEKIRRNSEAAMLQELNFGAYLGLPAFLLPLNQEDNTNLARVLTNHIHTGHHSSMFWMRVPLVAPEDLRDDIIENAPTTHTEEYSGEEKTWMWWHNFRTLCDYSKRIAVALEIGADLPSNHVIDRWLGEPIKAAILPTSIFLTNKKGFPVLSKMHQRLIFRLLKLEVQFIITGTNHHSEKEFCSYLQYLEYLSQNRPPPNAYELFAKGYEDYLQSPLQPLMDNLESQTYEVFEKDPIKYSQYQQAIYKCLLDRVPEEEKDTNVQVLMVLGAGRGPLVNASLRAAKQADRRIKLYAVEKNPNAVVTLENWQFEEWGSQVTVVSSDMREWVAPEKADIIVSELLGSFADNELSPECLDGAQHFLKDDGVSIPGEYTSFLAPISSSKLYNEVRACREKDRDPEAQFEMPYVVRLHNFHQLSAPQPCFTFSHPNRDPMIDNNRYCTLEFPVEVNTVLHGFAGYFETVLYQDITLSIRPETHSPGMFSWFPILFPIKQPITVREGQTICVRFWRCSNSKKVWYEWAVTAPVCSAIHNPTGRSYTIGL
# [41] = AUC (0 to 24 hrs) in male Sprague-Dawley rat at 2 mg/kg, iv administered via tail vein by LC-MS/MS analysis; type: ADME, organism-based; details: in vivo
# [42] = Clearance in male Sprague-Dawley rat at 2 mg/kg, iv administered via tail vein by LC-MS/MS analysis; type: ADME, organism-based; details: in vivo
# [43] = AUC (0 to infinity) in male Sprague-Dawley rat at 2 mg/kg, iv administered via tail vein by LC-MS/MS analysis; type: ADME, organism-based; details: in vivo
# [44] = Half life in male Sprague-Dawley rat at 2 mg/kg, iv administered via tail vein by LC-MS/MS analysis; type: ADME, organism-based; details: in vivo
# [45] = biological target: T1, Protein arginine N-methyltransferase 5; experiment: Inhibition of PRMT5 in human MCF7 cells using SmD3 as substrate assessed as reduction in symmetric arginine dimethylation by measuring reduction in SmD3me2 level incubated for 72 hrs by Western blot analysis; type: cell-based; details: dose 3.75-15 µM
compound,measurement,setting,value
COc1cc(C2NCCc3c2[nH]c2ccccc32)ccc1OCc1cc(C(F)(F)F)cc(C(F)(F)F)c1 (stereo not given),Activity,[1],0.37%
same,remaining at 0.5 h,[2],85.9%
same,Activity,[3],0.48%
same,bioavailability,[4],30.6%
same,Cmax,[5],187 ng/mL
same,Activity,[6],0.4%
same,Activity,[7],98.07%
same,F,[8],100%
same,Activity,[9],0.01%
same,Activity,[10],36.77%
same,IC50,[11],7.99 µM
same,IC50,[12],5.74 µM
same,Activity,[13],0.26%
same,Activity,[14],54.85%
same,AUC(0-t),[15],1960 ng·h/mL
same,Activity,[16],3.07%
same,Vd,[17],10.8 L/kg
same,IC50,[18],86.5 µM
same,IC50,[19],> 100 µM
same,Activity,[20],96.45%
same,AUC(0-inf),[21],2110 ng·h/mL
same,Activity,[22],0%
same,IC50,[23],9.76 µM
same,Activity,[24],40.55%
same,CL/F,[25],78.3 mL/min/kg
same,Activity,[26],62.98%
same,Activity,[27],0.02%
same,IC50,[28],25.4 µM
same,Vd,[29],38.5 L/kg
same,IC50,[30],6.55 µM
same,remaining at 0.5 h,[31],80.3%
same,half-life,[32],5.7 h
same,Activity,[33],1.51%
same,Tmax,[34],2 h
same,Activity,[35],2.32%
same,Activity,[36],4.25%
same,Activity,[37],97.31%
same,Cmax,[38],167 ng/mL
same,Activity,[39],Active
same,IC50,[40],15.5 µM
same,AUC(0-t),[41],1280 ng·h/mL
same,clearance,[42],25 mL/min/kg
same,AUC(0-inf),[43],1330 ng·h/mL
same,half-life,[44],4.9 h
same,inhibition,[45],Dose-Dependent Effect
